Experiments:
[1] = test system: E. coli (ATCC 25922); assay: Time-kill curve; assay type: cell-based; settings: 1×MIC to 8×MIC, 0-24 hours
Procedure: Based on the MIC test results, the best performing active compounds were selected for time-kill curve studies.
(2) Sampling: At 0, 2, 4, 6, 8, 12, and 24 hours, aspirate 100 μL of the mixture
(3) Serial dilution and coating: Use 10 mM PBS buffer to dilute 10 times continuously, and evenly coat the diluted liquid on the agar plate
(4) Incubation and counting: Incubate in a 37° C. incubator for 24 hours and count the colonies.
(5) Sterilization curve drawing: Draw the curve of colony count change over time at different compound concentrations, and record the results as shown in FIG. 1.

[2] = test system: E. coli (ATCC 25922); assay: Intracellular and extracellular ATP concentration; assay type: cell-based
Procedure: The intracellular and extracellular ATP levels refer to the concentration of ATP inside and outside the cell. Under normal physiological conditions, ATP is mainly produced inside the cell and released outside the cell when needed. This dynamic change is very important for maintaining normal biological homeostasis.
Determine the intracellular ATP concentration using the ATP assay kit:
Secondly, the bacterial suspension was treated with different concentrations of compound i, and a blank control group was set up. Next, the samples were incubated at 37° C. and the cells were lysed by ultrasound to extract ATP. After that, the supernatant was collected by high-speed centrifugation and ATP detection was performed, which involved adding the detection solution and compound to a 96-well plate and using a reader to measure the light intensity. Finally, data analysis and statistics were performed to evaluate the effects of the compound by comparing the ATP levels of different treatment groups.

[3] = test system: E. coli (ATCC 25922); assay: Bacterial extracellular conductivity; assay type: cell-based; settings: 1×MIC and 2×MIC, vs blank control
From the text: Changes in conductivity can reflect the permeability and integrity of the cell membrane. When the cell membrane is damaged or the permeability increases, the flow of ions inside and outside the cell will increase, resulting in an increase in conductivity. In the fields of biology and cell biology, conductivity measurements are often used to assess changes in cell membrane integrity.
MRSA and E. coli cells in the logarithmic growth phase were first resuspended after high-speed centrifugation and repeated PBS buffer washing and adjusted to the appropriate optical density. Next, different concentrations of compound i (1×MIC and 2×MIC) were added to the cell suspension, and a blank control group was set. All samples were incubated at 37° C. and sampled at set time points (0, 1, 2, 4, 6, and 8 hours). […] This series of operations helps to reveal the specific mechanism of action of compound i on bacterial growth and cell structure.

[4] = test system: E. coli (ATCC 25922); assay: Biofilm formation, crystal violet staining; assay type: cell-based
Procedure: Quantification of biofilm using crystal violet staining:
MRSA and E. coli cells were first adjusted to the logarithmic growth phase and diluted to […]. […] A blank control group without compound addition was set up. After incubation, the suspension was discarded and washed three times with 10 mM PBS buffer, and the biofilm was fixed with methanol for 15 minutes. After removing the methanol, 200 μL of 0.1% crystal violet was added to each well for staining for 30 minutes, and then the crystal violet was discarded and washed again with PBS three times. After the well plate was dried, 200 μL of 95% ethanol was added to each well to dissolve the fixed dye. […] This process allows for quantitative analysis of the ability of different concentrations of compound i to form biofilms.

[5] = test system: E. coli (ATCC 25922); assay: Cell membrane integrity, propidium iodide staining; assay type: cell-based
Procedure: The steps for dead cell staining using propidium iodide are as follows:
At the beginning of the experiment, samples were taken from MRSA and E. coli in the logarithmic growth phase, centrifuged at 8000 rpm for 5 minutes and washed twice with 0.85% NaCl solution to remove the culture medium and other possible interfering substances. Afterwards, the bacteria were resuspended in 0.85% NaCl solution and the concentration was adjusted to approximately 1×10^8 CFU/mL.
[…] After incubation, in order to mark and distinguish dead cells, 15 μM propidium iodide solution was added to each sample and incubated in the dark for 15 minutes. PI is a fluorescent dye that binds to DNA and can only penetrate into dead cells with damaged cell membranes.
Finally, the samples were observed using a fluorescence microscope or a confocal laser scanning microscope. By setting the appropriate fluorescence channel (excitation wavelength 535 nm, emission wavelength 617 nm), the red fluorescence emitted by dead cells can be detected. In this way, the effect of compound i on the lethality of bacterial cells can be intuitively evaluated and recorded, providing an experimental basis for further drug research.

[6] = test system: MRSA (ATCC 33591); assay: Bacterial cell morphology by FESEM; assay type: cell-based, S. aureus; settings: 4 hours
Procedure: (§1) Observation of bacterial cell morphology using FESEM:
(§2) First, the bacterial suspension was adjusted to OD600=0.5, and then the bacteria were treated with compound i at a final concentration of 1×MIC and 4×MIC at 37° C. for 4 hours, and a control group without compound addition was set up. After treatment, the bacteria were collected by high-speed centrifugation at 6000 rpm for 10 minutes and washed three times with 10 mM PBS buffer to remove residual culture medium and drugs. Subsequently, the bacteria were fixed with 2.5% glutaraldehyde at 4° C. for 12 hours to maintain the integrity of the cell structure, and then washed again with PBS buffer three times to remove excess glutaraldehyde.
(§3) Next, the cells were subjected to a series of ethanol dehydration treatments (30%, 50%, 70%, 80%, 90% and 100% ethanol), and the treatment time of each concentration was sufficient to replace the intracellular water. After dehydration, the sample was resuspended in isoamyl acetate for 30 minutes and then centrifuged at 6000 rpm for 10 minutes to remove the supernatant. The sample was then dried and dotted on a stage with conductive glue, gold-plated to enhance the conductivity of the sample, and finally observed using a field emission scanning electron microscope (FESEM) to obtain high-resolution images of bacterial cell morphology and surface morphology. […]

[7] = test system: E. coli (ATCC 25922); assay: Bacterial cell morphology by FESEM; assay type: cell-based; settings: 4 hours
Procedure: as §1, §2, §3

C=C[C@]1(C)C[C@@H](OC(=O)CSc2nc3cc[n+](Cc4ccc(C)cc4)cc3[nH]2)[C@]2(C)[C@H](C)CC[C@]3(CCC(=O)[C@H]32)[C@@H](C)[C@@H]1O [Compound i, 5-(4-methylbenzyl)-2-((2-(((3aR,4R,5R,7S,8S,9R,9aS,12R)-8-hydroxy-4,7,9,12-tetramethyl-3-oxo-7-vinyldecahydro-4,9a-propancyclopenta[8]cyclo-5-yl)oxy)-2-oxoethyl)thio)-3H-imidazo[4,5-C]pyridine-5-ium]
bactericidal efficiency (time-kill curve) compared with retapamulin [1]: higher bactericidal efficiency | extracellular fluorescence intensity (ATP) increased by ([2]; 1×MIC): 4.34 times | intracellular fluorescence intensity (ATP) decreased by ([2]; 1×MIC): 50.75% | extracellular fluorescence intensity (ATP) increased by ([2]; 2×MIC): 5.35 times | intracellular fluorescence intensity (ATP) decreased by ([2]; 2×MIC): 67.87% | extracellular conductivity [3]: increased | inhibition rate of biofilm formation ([4]; 1×MIC): 60.47% | inhibition rate of biofilm formation ([4]; 8×MIC): 94.54% | cell membrane integrity, propidium iodide red fluorescence ([5]; 1×MIC): obvious red fluorescence was observed | cell membrane integrity, propidium iodide red fluorescence ([5]; 2×MIC): red fluorescence was significantly enhanced | bacterial cell morphology (FESEM) ([6]; 1×MIC): showed an irregular shape | bacterial cell morphology (FESEM) ([6]; 4×MIC): obvious shrinkage or deformation | bacterial cell morphology (FESEM) ([7]; 1×MIC): depressions on the bacterial surface were observed | bacterial cell morphology (FESEM) ([7]; 4×MIC): obvious wrinkles and shrinkage on the bacterial surface

Reference: patent US12275734B1, “Pleuromutilin onium salt derivative containing a 3H-imidazo[4,5-c]pyridine side chain, and a preparation method and application thereof” (SHAANXI UNIVERSITY OF SCIENCE AND TECHNOLOGY, priority 2024, dated 2025)
